Format in all cases: physicochemical
Data set [1] can be described thus: Suspension competitive agitation test between anhydrous crystalline forms I, III, XV, XVII and XVIII (IPA, MTBE; solid tested by XRPD). Particulars: solid by XRPD after suspension stirring 3 days.
Data set [2] can be described thus: Suspension competitive test between Crystalline Form III and Crystalline Form XVIII (EtOAc, MTBE, n-butyl alcohol; solid tested by XRPD). The following applies: for Crystalline Form: solid by XRPD after suspension stirring 7 days; for interconversion rate of crystalline form III and crystalline form XVIII: suspension stirring 7 days.
Data set [3] in a line: Stability test (1): physical and chemical stability by XRPD and HPLC at 80° C., 40° C./75% RH and 25° C./60% RH. Particulars: for chemical stability: degradation (HPLC purity) / physical stability: crystalline form (XRPD): 80° C. (sealed) 24 hours, 40° C./75% RH and 25° C./60% RH (open) 1 week; for purity (area %): HPLC. The protocol:
(sealed) for 24 hours, at 40° C./75% RH and 25° C./60% RH (open) for 1 week, respectively. The physical and chemical stability of the samples were tested by XRPD and HPLC.

Data set [4] is described as follows: Evaluation of hygroscopicity by Dynamic Moisture Sorption Analyzer (DVS), with XRPD before and after DVS. Particulars: for hygroscopicity (in words) / moisture adsorption: 80% RH/25° C.; for moisture adsorption: humidity cycle 0% RH-95% RH-0% RH; for crystalline form after the DVS test (XRPD): XRPD of the sample after the DVS test.
Data set [5] can be described thus: Stability test (2): salt crystalline forms at high temperature, high humidity and light, detection by HPLC and XRPD. The following applies: for total impurities (%): HPLC.
The mark [6] stands for this setting: light (RT, white light 6980 lux, UV 282 μW/cm2), 5 days.
[7] abbreviates: light (RT, white light 6980 lux, UV 282 μW/cm2), 10 days.

With `O=C(NS(=O)(=O)c1ccc(NC[C@H]2COCCO2)c([N+](=O)[O-])c1)c1ccc(N2CCN(CC3=C(c4ccc(Cl)cc4)CC4(CCC4)CC3)CC2)cc1Oc1cnc2[nH]ccc2c1` [listing 1 of 2 here], the “Crystalline Form” value in data set [1] (IPA, 50° C.) is on record as “Crystalline Form III”; in data set [1] (IPA, 70° C.) it was “Crystalline Form III”; in data set [1] (IPA, room temperature), “Crystalline Form III”; in data set [1] (MTBE, 50° C.), “Crystalline Form III”; in data set [1] (MTBE, 70° C.), “Crystalline Form III”; in data set [1] (MTBE, room temperature) it was “Crystalline Form III”.

On to `O=C(NS(=O)(=O)c1ccc(NC[C@H]2COCCO2)c([N+](=O)[O-])c1)c1ccc(N2CCN(CC3=C(c4ccc(Cl)cc4)CC4(CCC4)CC3)CC2)cc1Oc1cnc2[nH]ccc2c1` [listing 2 of 2 here], for which the “Crystalline Form” value is given as “Crystalline Form III” in data set [2] (EtOAc, 50° C.); “Crystalline Form III” in data set [2] (EtOAc, 70° C.); “Crystalline Form V” in data set [2] (EtOAc, room temperature); “Crystalline Form III” in data set [2] (MTBE, 50° C.); “Crystalline Form III” in data set [2] (MTBE, 70° C.); “Crystalline Form III” in data set [2] (n-Butyl alcohol, 50° C.). The “Crystalline Form” value in data set [2] (n-Butyl alcohol, 70° C.) is “Crystalline Form III”.

For the compound `O=C(NS(=O)(=O)c1ccc(NCC2COCCO2)c([N+](=O)[O-])c1)c1ccc(N2CCN(CC3=C(c4ccc(Cl)cc4)CC4(CCC4)CC3)CC2)cc1Oc1cnc2[nH]ccc2c1` (single isomer, unassigned) [crystalline form III], in data set [2] (room temperature), the “stability of crystalline form III and crystalline form XVIII relative to each other” value is given as “similar”; the “interconversion rate of crystalline form III and crystalline form XVIII” value is given as “relatively slow”. For the same compound, in data set [3], the “chemical stability: degradation (HPLC purity)” value (from here on “chemical stability: degradation”) is “did not degrade” and the “physical stability: crystalline form (XRPD)” value (“physical stability” below) is listed as “did not change”. Moreover, the “purity (area %)” value in data set [3] (25° C./60% RH 1 week (open)) turned out to be 98.66 area %. The “purity (area %)” value in data set [3] (40° C./75% RH 1 week (open)) stood at 98.67 area %. For the same compound, the “purity (area %)” value in data set [3] (80° C. 24 hours (sealed)) was 98.64 area %. Further, the “purity (area %)” value in data set [3] (starting point) stood at 98.65 area %. In addition, in data set [4] (DVS), the “hygroscopicity (in words)” value is listed as “slight hygroscopicity” and the moisture adsorption was 0.9%. Also, the “crystalline form after the DVS test (XRPD)” value in data set [4] is “did not change”.

Regarding `O=C(NS(=O)(=O)c1ccc(NCC2COCCO2)c([N+](=O)[O-])c1)c1ccc(N2CCN(CC3=C(c4ccc(Cl)cc4)CC4(CCC4)CC3)CC2)cc1Oc1cnc2[nH]ccc2c1` (stereo not shown) [amorphous form XXV], in data set [3], the “chemical stability: degradation” value is listed as “did not degrade”. In data set [3], the “physical stability” value is listed as “did not change”. The “purity (area %)” value in data set [3] (25° C./60% RH 1 week (open)) is on record as 99.42 area %; in data set [3] (40° C./75% RH 1 week (open)), 99.45 area %; in data set [3] (80° C. 24 hours (sealed)), 99.42 area %; in data set [3] (starting point), 99.43 area %.

On to `O=C(NS(=O)(=O)c1ccc(NCC2COCCO2)c([N+](=O)[O-])c1)c1ccc(N2CCN(CC3=C(c4ccc(Cl)cc4)CC4(CCC4)CC3)CC2)cc1Oc1cnc2[nH]ccc2c1` (single isomer, unassigned) [crystalline form XVIII], for which the “stability of crystalline form III and crystalline form XVIII relative to each other” value in data set [2] (room temperature) is reported as “similar”. Further, the “interconversion rate of crystalline form III and crystalline form XVIII” value in data set [2] (room temperature) is listed as “relatively slow”. Moreover, in data set [3], the “chemical stability: degradation” value is on record as “did not degrade”. Besides, in data set [3], the “physical stability” value is “did not change”. Further, the “purity (area %)” value worked out at 99.60 area % in data set [3] (25° C./60% RH 1 week (open)), 99.61 area % in data set [3] (40° C./75% RH 1 week (open)), 99.61 area % in data set [3] (80° C. 24 hours (sealed)) and 99.48 area % in data set [3] (starting point). The “hygroscopicity (in words)” value in data set [4] (DVS) is reported as “almost no moisture absorption”. Besides, the moisture adsorption in data set [4] (DVS) came out at 0.04%. For the same compound, in data set [4], the “crystalline form after the DVS test (XRPD)” value was “did not change”.

For the compound `Cc1ccc(S(=O)(=O)O)cc1.O=C(NS(=O)(=O)c1ccc(NC[C@H]2COCCO2)c([N+](=O)[O-])c1)c1ccc(N2CCN(CC3=C(c4ccc(Cl)cc4)CC4(CCC4)CC3)CC2)cc1Oc1cnc2[nH]ccc2c1` [XXIX], the XPRD entry in data set [5] (60° C. (open), 5 days) is “No change”; in data set [5] (60° C. (open), 10 days) it was “No change”; in data set [5] (60° C. (open), 30 days) it was “No change”; in data set [5] (RT/75% RH (open), 5 days) it was “No change”; in data set [5] (RT/75% RH (open), 10 days), “No change”; in data set [5] (RT/75% RH (open), 30 days), “No change”. The XPRD result in data set [5] (setting [6]) is recorded as “No change”; in data set [5] (setting [7]), “No change”; in data set [5] (the initial sample, 0 day) it was “XXIX”. In addition, the “total impurities (%)” value was found to be 0.64% in data set [5] (60° C. (open), 5 days); 0.65% in data set [5] (60° C. (open), 10 days); 0.66% in data set [5] (60° C. (open), 30 days); 0.65% in data set [5] (RT/75% RH (open), 5 days); 0.65% in data set [5] (RT/75% RH (open), 10 days); 0.60% in data set [5] (RT/75% RH (open), 30 days). In addition, the “total impurities (%)” value is 0.64% in data set [5] (setting [6]); 0.59% in data set [5] (setting [7]); 0.65% in data set [5] (the initial sample, 0 day). Also, the “weight increase by hygroscopy (80% RH)” value in data set [4] (DVS, 80% RH) was 0.948%. In addition, the XRPD change entry in data set [4] (XRPD before and after DVS) was “no change”.

The record behind these values is patent US12358912B2 (ASCENTAGE PHARMA (SUZHOU) CO., LTD., priority 2020, dated 2025).
